Measurements taken from patent US20080248008A1, “Inhibitors of Protein Kinase a Anchoring” (priority 2004, published 2008).

Legend:
[1] = target: T1, RII (Mus musculus, UniProt P12367); test: R-overlay (solid-phase binding) of 32P-labelled RII on membrane-synthesized peptides; set-up: species or system murine
T1 construct: His tag; made in house; host or cells: E. coli BL21 (B121 [sic])
Method: Autospot Peptide Array. Peptide arrays were synthesized on cellulose paper by using an Autospot Robot ASP222 (ABiMED, Langenfeld, Germany) as described (Frank, R., 1992, Tetrahedron 48, 123-132) or Multipep automated peptide synthesizer (INTAVIS Bioanalytical Instruments AG, Koeln, Germany) as described (Frank, R., 1992, Tetrahedron 48, 123-132).
R-overlay. R-overlays were conducted as described, using ^32P-labeled recombinant murine RII (Hausken, Z. E., et al., 1998 in Protein Targeting Protocols, ed. Clegg, R. A. (Humana, Totowa, N.J.), Vol. 88, pp. 47-64) or recombinant bovine RI (A98S) or by cold RI-overlay where bound RIα was detected by Western blot. Cold RI-overlay was performed by incubating the membranes with 250 nM RI overnight at 4° C., then the membranes were washed five times in TBST for 5 min. Detection of RI was performed using an anti-RI rabbit polyclonal antibody (Santa Cruz) at a concentration of 0.2 μg/μl for 1 hour at 4° C. Then the membranes were washed five times for 5 minutes in PBS followed by incubation with HRP-conjugated anti-rabbit IgGs (1:5000) for 1 hour at 4° C. […]
Densitometric analysis. The densitometric analysis was performed using Scion Image (www.scioncorp.com) (Scion Coorperation, Mo., USA) or Quantity One version 4.5.0, (BioRad).

[2] = target: PKA-RIIα (Homo sapiens, UniProt P13861); test: Immunofluorescence of PKA-RIIα at centrosomes in human T cells; assay type: cell-based; set-up: endogenous in cells; host or cells: human peripheral blood CD3+ T cells; conditions: human peripheral blood T cells
PKA-RIIα, sequence (P13861 whole entry): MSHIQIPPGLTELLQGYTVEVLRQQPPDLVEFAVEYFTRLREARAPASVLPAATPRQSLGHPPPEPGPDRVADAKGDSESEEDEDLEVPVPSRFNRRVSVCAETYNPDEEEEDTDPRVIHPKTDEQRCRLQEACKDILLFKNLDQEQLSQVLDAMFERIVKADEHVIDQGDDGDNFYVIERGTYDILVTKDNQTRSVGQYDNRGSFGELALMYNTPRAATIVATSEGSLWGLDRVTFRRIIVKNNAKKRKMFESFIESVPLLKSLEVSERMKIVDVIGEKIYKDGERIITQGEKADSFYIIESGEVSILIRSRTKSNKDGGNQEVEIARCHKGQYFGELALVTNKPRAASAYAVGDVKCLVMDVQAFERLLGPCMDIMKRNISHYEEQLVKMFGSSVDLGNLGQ
Method: Blots were developed by using Supersignal West Pico substrate (Pierce). For immunofluorescence polyclonal and monoclonal antibodies against RIα (Biogenesis), RIIα (Transduction laboratories) and AKAP450 (A24, Tasken et al., 2001, J. Biol. Chem, 276:21999-22002) were used as primary antibodies. Secondary antibodies (all Molecular Probes) were Alexa-488 conjugated anti-mouse and anti-rabbit IgG (both goat) and Alexa-555 anti-rabbit IgG (goat).
Immunofluorescence analysis of cells was performed as previously described (Collas, P. et al., 1996, J. Cell Biol. 135, 1715-1725). RI was detected by using an anti-RI monoclonal antibody (Transduction Laboratories) as a primary antibody at a […] and Alexa-488 as a secondary antibody (1:600, Goat anti Mouse IgGs, Molecular Probes). Immunofluorescence was performed on Y1 cells attached to collagen/fibronectin coated coverslips. Mitochondria were stained using MitoTracker Red CMXRos (Molecular Probes) in fresh medium with incubation at 37° C. for 30 min prior to cell fixation. All cells were washed in PBS, fixed with 3% paraformaldehyde and permeabilised using 0.1% Triton X-100. […] Alternatively, fluorescently labeled cells were examined using a Leica TCS SP1 confocal fluorescence microscope (Leica, Heidelberg, Germany) equipped with an Ar (488 nm) and two He/Ne (543 and 633 nm) laser lines. […]

[3] = test system: human peripheral blood T cells; test: Flow cytometry of cell death/apoptosis in activated T cells; assay type: cell-based
Method: Flow cytometry. Negatively selected CD3^+ T cells cultured in flat-bottom, 96-well plates (Costar; 0.2×10^6 cells/well) were activated with OKT-3 (4 ng/μl) for […] at 37° C., crosslinked with F(ab′)2 fragments (39 μg/ml) and thereafter incubated with arginine-coupled peptides at 0-50 μM. For analyzing the DNA content, the cells were incubated further for 36-40 hours and thereafter washed in PBS, fixed in […], permeabilized in FACS Permeabilizing Solution (BD BioSciences, San Jose, Calif.) for 10 min and washed in PBS containing 1% BSA and 100 μg/ml RNase prior to being stained with propidium iodide (PI, Cat. No. 51-66211E BD Biosciences Pharmingen, San Diego, Calif., USA) (25 μg/ml) for 15 min 37° C. The cells were washed twice in PBS and fixed in 1% paraformaldehyde before flow cytometry (FACSCalibur, BD Biosciences, San Jose, Calif.) and subsequent analysis using FlowJo software (Tree Star, San Carlos, Calif.). For analyzing apoptosis and necrosis, the cells were incubated further for 18 hours and thereafter washed in PBS, fixed in 1% paraformaldehyde and washed with annexin binding buffer (Cat. No. 51-66121E, BD Biosciences) prior to being stained with Annexin V (3 μl to 50 μl volume, Cat. No. 556419, BD Biosciences Pharmingen) and PI (3 μg/ml) for 20 min on ice. The cells were washed twice in PBS and fixed in 1% paraformaldehyde before being analyzed on a flow cytometer (FACSCalibur, BD Biosciences, San Jose, Calif.) and analyzed using FlowJo software (Tree Star, San Carlos, Calif.).
To test whether MEME3-Arg11 induces cell death or apoptosis in human peripheral blood T cells, activated T cells treated with increasing doses of MEME3-Arg11 were analysed by forward scatter/sideward scatter (FSC/SSC) in a fluorescence-activated cell sorter (FACS). […] Apoptosis was also assessed by Annexin V^FITC labeling under the same experimental conditions. […] The effect of the peptides on cellular DNA content was also measured by flow cytometry after permeabilization of the fixed cells and PI-staining.
Cell death was also analysed by monitoring PS externalization by Annexin V binding and destruction of the cellular membrane by PI staining using FACS.

[4] = activated T cells, increasing doses

T1 sequence (P12367 whole entry): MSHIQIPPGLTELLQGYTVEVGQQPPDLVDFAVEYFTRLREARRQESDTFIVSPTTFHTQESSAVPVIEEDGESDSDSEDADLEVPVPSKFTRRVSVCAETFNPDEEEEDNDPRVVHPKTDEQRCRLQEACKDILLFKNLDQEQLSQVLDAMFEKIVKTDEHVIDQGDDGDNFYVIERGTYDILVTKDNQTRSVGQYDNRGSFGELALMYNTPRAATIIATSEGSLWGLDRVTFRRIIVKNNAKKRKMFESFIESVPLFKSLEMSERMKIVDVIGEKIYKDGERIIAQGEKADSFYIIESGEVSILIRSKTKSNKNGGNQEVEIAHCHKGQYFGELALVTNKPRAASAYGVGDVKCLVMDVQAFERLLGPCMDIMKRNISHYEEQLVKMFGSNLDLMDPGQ

Compound | affinity for RII compared to PDSM ([1]; densitometry of autoradiographs, lower) [times] | competition of RII binding to an RII specific binding sequence ([1]; up to 100 μM peptide in solution) | displacement of PKA-RIIα from centrosomes [2] | annexin V binding [3, 4] | morphological changes (FSC/SSC) [3, 4] | late apoptotic cells (AV+/PI+) ([3]; overnight) | DNA content (aneuploidity), PI-staining ([3]; permeabilized fixed cells)
CC[C@H](C)[C@H](NC(=O)[C@H](CCC(N)=O)NC(=O)[C@H](CC(=O)O)NC(=O)[C@H](C)NC(=O)[C@H](CC(C)C)NC(=O)[C@H](CCC(N)=O)NC(=O)[C@H](CC(N)=O)NC(=O)[C@H](C)NC(=O)[C@H](Cc1ccc(O)cc1)NC(=O)[C@H](CCC(N)=O)NC(=O)[C@H](CCC(=O)O)NC(=O)[C@@H](N)CC(C)C)C(=O)N[C@H](C(=O)N[C@@H](CCCCN)C(=O)N[C@@H](CCC(=O)O)C(=O)N[C@@H](C)C(=O)N[C@H](C(=O)N[C@@H](CCC(=O)O)C(=O)N[C@@H](CCCCNC(=O)c1ccc2c(c1)C(=O)OC21c2ccc(O)cc2Oc2cc(O)ccc21)C(N)=O)[C@@H](C)O)[C@@H](C)CC [MEME3] | 0.5 | not able to compete the RII binding |  |  |  |  | 
LEQYANQLADQIIKEATERRRRRRRRRrr [MEME3-Arg11] |  |  | no displacement of PKA-RIIα | no increase in annexin V binding, but rather a small decrease | no morphological changes characteristic of apoptosis | No late apoptotic cells (AV+/PI+) were detected | No change in DNA content
